The supplement of paper PMC10627819

Tests used:
[1] = system: S. pneumoniae D39V; test: fitness (endpoint OD595 vs no drug) (fraction); higher = more growth
Method in brief: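 Fitness was defined as the optical density at the transition into stationary phase relative to the robust mean of no-drug control wells. Values were capped at 1. Cultures were started at OD595 0.01 in 384-well plates (30 µl, or 55 µl for S. pneumoniae) in TSB, LB Lennox or CY at 37 °C. OD595 was recorded every 30 min over 14 h, with the first reading subtracted as background.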

[2] = system: B. subtilis 168; test: Bliss interaction score (quartile over a dose matrix) (fitness difference); higher = more antagonism (negative = synergy)
Method in brief: (§1)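 Growth in each well was taken as OD595 at entry into stationary phase. Dividing by the plate's robust no-drug mean and capping at 1 gave fitness, and single-drug fitness was inferred from the combination data. The Bliss score, observed minus product-expected fitness, is summarised by quartiles over technical, biological and donor/recipient replicates.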

[3] = system: S. aureus DSM 20231; test: as above
Method in brief: as §1

[4] = system: S. aureus Newman; test: as above
Method in brief: as §1

[5] = system: S. pneumoniae D39V; test: as above
Method in brief: as §1
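Throughout, for Bliss interaction score (quartile over a dose matrix): first quartile when negative (synergy) and third quartile when positive (antagonism).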

CC1(C)S[C@@H]2[C@H](NC(=O)[C@H](N)c3ccc(O)cc3)C(=O)N2[C@H]1C(=O)O [Amoxicillin] + CCC(C)C1C(=O)NC(=C)C(=O)NC(C(=O)NC(CSCC(C(=O)N1)NC(=O)/C(=C/C)/NC(=O)C(C(C)CC)N)C(=O)NC2C(SCC(NC(=O)CNC(=O)C3CCCN3C2=O)C(=O)NC(CCCCN)C(=O)NC4C(SCC(NC(=O)CNC(=O)C(NC(=O)C(NC(=O)C(NC(=O)CNC4=O)C)CC(C)C)CCSC)C(=O)NC(CC(=O)N)C(=O)NC(CCSC)C(=O)NC(CCCCN)C(=O)NC5C(SCC6C(=O)NC(C(=O)NC(CSC(C(C(=O)N6)NC(=O)C(NC5=O)C)C)C(=O)NC(CO)C(=O)NC(C(C)CC)C(=O)NC(CC7=CN=CN7)C(=O)NC(C(C)C)C(=O)NC(=C)C(=O)NC(CCCCN)C(=O)O)CC8=CN=CN8)C)C)C)CC(C)C [Nisin]
fitness, [1], main component drawn
Conditions | partner 0.4275 µg/mL | partner 0.855 µg/mL | partner 1.6 µg/mL | partner 1.71 µg/mL | partner 3.2 µg/mL | partner 6.4 µg/mL
first compound 0.0008 µg/mL | ≥ 1 | 0.534 | – | 0.106 | – | –
first compound 0.0015 µg/mL | 0.981 | – | 0.135 | 0.119 | 0.0433 | 0.0441
first compound 0.003 µg/mL | 0.953 | 0.705 | 0.38 | 0.13 | 0.0777 | 0.0249

fitness, [1], one replicate, main component drawn
Conditions | partner 1.6 µg/mL | partner 3.2 µg/mL | partner 6.4 µg/mL
first compound 0.0008 µg/mL | 0.0458 | 0.094 | 0.0228
first compound 0.006 µg/mL | 0.289 | 0.0544 | 0.0443

main component drawn
Conditions | Bliss interaction score
[2] | -0.105
[3] | -0.111
[4] | -0.0715
[5] | 0.09

CC1(C)S[C@@H]2[C@H](NC(=O)[C@H](N)c3ccc(O)cc3)C(=O)N2[C@H]1C(=O)O [Amoxicillin] + CC[C@H]1OC(=O)[C@H](C)[C@@H](O[C@H]2C[C@@](C)(OC)[C@@H](O)[C@H](C)O2)[C@H](C)[C@@H](O[C@@H]2O[C@H](C)C[C@H](N(C)C)[C@H]2O)[C@](C)(OC)C[C@@H](C)C(=O)[C@H](C)[C@@H](O)[C@]1(C)O [Clarithromycin]
fitness, [1], one replicate
Conditions | partner 0.007812 µg/mL | partner 0.01562 µg/mL | partner 0.03125 µg/mL | partner 0.0625 µg/mL | partner 0.125 µg/mL | partner 0.25 µg/mL
first compound 0.0008 µg/mL | 0.921 | 0.834 | 0.67 | 0.748 | 0.666 | 0.364
first compound 0.0015 µg/mL | 0.844 | 0.836 | 0.633 | – | – | –
first compound 0.003 µg/mL | 0.789 | 0.772 | 0.546 | – | – | –
first compound 0.006 µg/mL | – | – | – | 0.436 | 0.303 | 0.149

fitness, [1]
Conditions | partner 0.0625 µg/mL | partner 0.07 µg/mL | partner 0.125 µg/mL | partner 0.14 µg/mL | partner 0.25 µg/mL | partner 0.28 µg/mL
first compound 0.0008 µg/mL | – | 0.212 | – | 0.157 | – | 0.0725
first compound 0.0015 µg/mL | 0.681 | 0.24 | 0.567 | 0.133 | 0.366 | 0.0875
first compound 0.003 µg/mL | 0.684 | 0.126 | 0.551 | 0.104 | 0.357 | 0.0502

Conditions | Bliss interaction score
[2] | 0.0461
[3] | -0.0818
[4] | -0.0752
[5] | 0.177

CC1(C)S[C@@H]2[C@H](NC(=O)[C@H](N)c3ccc(O)cc3)C(=O)N2[C@H]1C(=O)O [Amoxicillin] + CN(C)C(=O)C(CCN1CCC(O)(c2ccc(Cl)cc2)CC1)(c1ccccc1)c1ccccc1 [Loperamide]
fitness, [1]
Conditions | partner 17.14 µg/mL | partner 20 µg/mL | partner 34.28 µg/mL | partner 40 µg/mL | partner 80 µg/mL
first compound 0.0008 µg/mL | 0.993 | – | 0.945 | – | –
first compound 0.0015 µg/mL | 0.977 | ≥ 1 | 0.935 | ≥ 1 | ≥ 1
first compound 0.003 µg/mL | 0.868 | 0.999 | 0.839 | 0.994 | 0.991

fitness, [1], one replicate
Conditions | first compound 0.0008 µg/mL | first compound 0.0015 µg/mL | first compound 0.003 µg/mL | first compound 0.006 µg/mL
partner 20 µg/mL | ≥ 1 | – | – | 0.442
partner 40 µg/mL | ≥ 1 | – | – | 0.448
partner 68.57 µg/mL | ≥ 1 | 0.934 | 0.894 | –
partner 80 µg/mL | ≥ 1 | – | – | 0.212

Conditions | Bliss interaction score
[2] | 0.0397
[3] | -0.117
[4] | 0.0589
[5] | 0.0558

CC1(C)S[C@@H]2[C@H](NC(=O)[C@H](N)c3ccc(O)cc3)C(=O)N2[C@H]1C(=O)O [Amoxicillin] + CO[C@H]1/C=C/O[C@@]2(C)Oc3c(C)c(O)c4c(O)c(c(/C=N/N5CCN(C)CC5)c(O)c4c3C2=O)NC(=O)/C(C)=C\C=C\[C@H](C)[C@H](O)[C@@H](C)[C@@H](O)[C@@H](C)[C@H](OC(C)=O)[C@@H]1C [Rifampicin]
[1], partner 0.025 µg/mL
Conditions | fitness
first compound 0.0008 µg/mL | 0.925
first compound 0.0015 µg/mL | 0.917
first compound 0.003 µg/mL | 0.905

[1], one replicate
Conditions | fitness
first compound 0.0008 µg/mL, partner 0.2 µg/mL | 0
first compound 0.0015 µg/mL, partner 0.2 µg/mL | 0
first compound 0.003 µg/mL, partner 0.2 µg/mL | 0
first compound 0.006 µg/mL, partner 0.025 µg/mL | 0.468
first compound 0.006 µg/mL, partner 0.05 µg/mL | 0.546
first compound 0.006 µg/mL, partner 0.1 µg/mL | 0.261

Conditions | Bliss interaction score
[2] | 0.0837
[3] | 0.133
[4] | 0.073
[5] | 0.0783

CC1(C)S[C@@H]2[C@H](NC(=O)[C@H](N)c3ccc(O)cc3)C(=O)N2[C@H]1C(=O)O [Amoxicillin] + C[C@@H](O)[C@H]1C(=O)N2C(C(=O)O)=C(SCCNC=N)C[C@H]12 [Imipenem]
fitness, [1], one replicate
Conditions | partner 0.005 µg/mL | partner 0.01 µg/mL | partner 0.02 µg/mL
first compound 0.0008 µg/mL | 0.971 | 0.931 | 0.907
first compound 0.006 µg/mL | 0.431 | 0.412 | 0.373

fitness, [1]
Conditions | partner 0.005 µg/mL | partner 0.0065 µg/mL | partner 0.01 µg/mL | partner 0.013 µg/mL | partner 0.02 µg/mL | partner 0.026 µg/mL
first compound 0.0008 µg/mL | – | 0.934 | – | 0.908 | – | 0.875
first compound 0.0015 µg/mL | 0.928 | 0.927 | 0.934 | 0.919 | 0.907 | 0.859
first compound 0.003 µg/mL | 0.888 | 0.842 | 0.882 | 0.869 | 0.866 | 0.796

Conditions | Bliss interaction score
[2] | 0.189
[3] | -0.0413
[4] | 0.0343
[5] | -0.058

CC1(C)S[C@@H]2[C@H](NC(=O)[C@H](N)c3ccc(O)cc3)C(=O)N2[C@H]1C(=O)O [Amoxicillin] + C[C@H]1COc2c(N3CCN(C)CC3)c(F)cc3c(=O)c(C(=O)O)cn1c23 [Levofloxacin]
fitness, [1]
Conditions | partner 0.1725 µg/mL | partner 0.2 µg/mL | partner 0.345 µg/mL | partner 0.4 µg/mL | partner 0.69 µg/mL | partner 0.8 µg/mL
first compound 0.0008 µg/mL | 0.955 | – | 0.911 | – | 0.591 | –
first compound 0.0015 µg/mL | 0.976 | 0.951 | 0.906 | 0.868 | 0.57 | 0.774
first compound 0.003 µg/mL | 0.96 | 0.866 | 0.89 | 0.893 | 0.561 | 0.775

fitness, [1], one replicate
Conditions | partner 0.2 µg/mL | partner 0.4 µg/mL | partner 0.8 µg/mL
first compound 0.0008 µg/mL | 0.959 | 0.881 | 0.718
first compound 0.006 µg/mL | 0.5 | 0.509 | 0.399

Conditions | Bliss interaction score
[2] | 0.0559
[3] | 0.0396
[4] | -0.0695
[5] | 0.142

CC1(C)S[C@@H]2[C@H](NC(=O)[C@H](N)c3ccc(O)cc3)C(=O)N2[C@H]1C(=O)O [Amoxicillin] + C[C@H]1c2cccc(O)c2C(=O)C2=C(O)[C@]3(O)C(=O)C(C(N)=O)=C(O)[C@@H](N(C)C)[C@@H]3[C@@H](O)[C@@H]21 [Doxycycline]
[1], one replicate
Conditions | fitness
first compound 0.0008 µg/mL, partner 0.003875 µg/mL | 0.967
first compound 0.0008 µg/mL, partner 0.00775 µg/mL | 0.976
first compound 0.0015 µg/mL, partner 0.003875 µg/mL | 0.961
first compound 0.0015 µg/mL, partner 0.00775 µg/mL | 0.988
first compound 0.003 µg/mL, partner 0.003875 µg/mL | 0.944
first compound 0.003 µg/mL, partner 0.00775 µg/mL | 0.973
first compound 0.006 µg/mL, partner 0.0155 µg/mL | 0.386
first compound 0.006 µg/mL, partner 0.031 µg/mL | 0.421
first compound 0.006 µg/mL, partner 0.062 µg/mL | 0.451

fitness, [1]
Conditions | first compound 0.0008 µg/mL | first compound 0.0015 µg/mL | first compound 0.003 µg/mL
partner 0.0155 µg/mL | 0.931 | 0.899 | 0.898
partner 0.031 µg/mL | 0.853 | 0.86 | 0.903
partner 0.062 µg/mL | 0.797 | 0.767 | 0.724

Conditions | Bliss interaction score
[2] | 0.136
[3] | -0.0671
[4] | -0.0414
[5] | 0.151

Cn1nnc(-c2ccc(-c3ccc(N4C[C@H](CO)OC4=O)cc3F)cn2)n1 [Tedizolid] + COc1cc(Cc2cnc(N)nc2N)cc(OC)c1OC [Trimethoprim]
Conditions | Bliss interaction score
[2] | 0.0776
[3] | 0.215
[4] | 0.136
[5] | -0.0785

Cn1nnc(-c2ccc(-c3ccc(N4C[C@H](CO)OC4=O)cc3F)cn2)n1 [Tedizolid] + Oc1cc(Cl)ccc1Oc1ccc(Cl)cc1Cl [Triclosan]
Conditions | Bliss interaction score
[2] | 0.0378
[3] | -0.153
[4] | 0.037
[5] | -0.075
